Results reported in patent publication US11407738B2 (Achillion Pharmaceuticals, Inc., priority 2015, dated 2022).
pIC50: −log10 of the molar value.

These molecules were tested against Human Factor D (Homo sapiens (Human), UniProt P00746) (assay: Human Factor D assay). Conditions: Table 3; Factor D inhibition, substrate Z-L-Lys-SBzl.
Format: biochemical
Description: Human Factor D (purified from human serum, Complement Technology, Inc.) at 80 nM final concentration is incubated with test compound at various concentrations for 5 min at room temperature in 50 mM Tris, 1M NaCl, pH 7.5. A synthetic substrate Z-L-Lys-SBzl and DTNB (Ellman's reagent) are added to final concentrations of 100 μM each. […] IC50 values are calculated by nonlinear regression of complement Factor D reaction rates as a function of test compound concentration.

Sequence of Human Factor D (P00746 26-253): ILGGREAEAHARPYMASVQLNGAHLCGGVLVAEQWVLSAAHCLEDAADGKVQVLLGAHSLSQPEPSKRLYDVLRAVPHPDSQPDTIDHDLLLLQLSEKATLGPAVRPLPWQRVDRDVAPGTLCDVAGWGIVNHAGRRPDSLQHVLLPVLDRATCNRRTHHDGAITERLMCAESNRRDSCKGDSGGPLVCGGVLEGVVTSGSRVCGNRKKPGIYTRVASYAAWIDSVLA

Q: How did the pIC50 turn out when CC(=O)c1nn(CC(=O)N2C[C@H](F)C[C@H]2C(=O)Nc2cccc(-c3cc(S(N)(=O)=O)ccc3Cl)c2F)c2ccc(-c3cnc(C)nc3)cc12 [Compound 525, (2S,4R)-1-(2-(3-acetyl-5-(2-methylpyrimidin-5-yl)-1H-indazol-1-yl)acetyl)-N-(2′-chloro-2-fluoro-5′-sulfamoylbiphenyl-3-yl)-4-fluoropyrrolidine-2-carboxamide] was run?
A: The pIC50 was > 6.00.

Q: How did the pIC50 turn out when CC(=O)c1cn(CC(=O)N2C[C@H](F)C[C@H]2C(=O)Nc2cccc(Br)n2)c2ccc(-c3cnc(O[C@@H]4CO[C@H]5[C@@H]4OC[C@H]5O)nc3)cc12 [Compound 502, (2S,4R)-1-(2-(3-Acetyl-5-(2-((3R,3aR,6R,6aR)-6-hydroxyhexahydrofuro[3,2-b]furan-3-yloxy)pyrimidin-5-yl)-1H-indol-1-yl)acetyl)-N-(6-bromopyridin-2-yl)-4-fluoropyrrolidine-2-carboxamide] was run?
A: The pIC50 was > 6.00.

Same assay, conditions: Table 4; Factor D inhibition, substrate Z-L-Lys-SBzl

Q: With CC(=O)c1nn(CC(=O)N2C[C@H](F)C[C@H]2c2nnc(CCCC(F)(F)F)o2)c2ccc(-c3cnc(C)nc3)cc12 [Compound 583, 2-(3-Acetyl-5-(2-methylpyrimidin-5-yl)-H-indazol-1-yl)-1-((2S,4R)-4-fluoro-2-(5-(4,4,4-trifluorobutyl)-1,3,4-oxadiazol-2-yl)pyrrolidin-1-yl)ethan-1-one] as the molecule, how does the pIC50 read?
A: The pIC50 was 5.00 to 6.00.

Q: Cc1cccc(NC(=O)[C@@H]2CCC(F)CCN2C(=O)Cn2cc(C(N)=O)c3cc(-c4cnc5ncccn45)ccc32)n1 (stereo partly drawn) [Compound 615, 1-(2-((2S)-5-Fluoro-2-((6-methylpyridin-2-yl)carbamoyl)azepan-1-yl)-2-oxoethyl)-5-(imidazo[1,2-a]pyrimidin-3-yl)-1H-indole-3-carboxamide] was tested. Which pIC50 did it give?
A: Its pIC50 is < 5.00.

Q: CC(=O)c1nn(CC(=O)N2C[C@H](F)C[C@H]2CS(=O)(=O)c2cccc(Br)n2)c2ccc(-c3cnc(C)nc3)cc12 [Compound 603, 2-(3-Acetyl-5-(2-methylpyrimidin-5-yl)-1H-indazol-1-yl)-1-((2S,4R)-2-(((6-bromopyridin-2-yl)sulfonyl)methyl)-4-fluoropyrrolidin-1-yl)ethan-1-one] was tested. Which pIC50 did it give?
A: Its pIC50 is < 5.00.

Q: With CC(=O)c1nn(CC(=O)N2C[C@H](F)C[C@H]2CNCc2cccc(Cl)c2F)c2ccc(-c3cnc(C)nc3)cc12 [Compound 630, 2-(3-Acetyl-5-(2-methylpyrimidin-5-yl)-1H-indazol-1-yl)-1-((2S,4R)-2-(((3-chloro-2-fluorobenzyl)amino)methyl)-4-fluoropyrrolidin-1-yl)ethan-1-one] as the molecule, how does the pIC50 read?
A: The pIC50 was 5.00 to 6.00.

Q: How did the pIC50 turn out when CC(=O)c1nn(CC(=O)N2C[C@H](F)C[C@H]2CC(N)=O)c2ccc(-c3cnc(C)nc3)cc12 [Compound 575, 2-((2R,4R)-1-(2-(3-Acetyl-5-(2-methylpyrimidin-5-yl)-1H-indazol-1-yl)acetyl)-4-fluoropyrrolidin-2-yl)acetamide] was run?
A: Its pIC50 is < 5.00.

Q: CC(=O)c1cc(CC(=O)N2C[C@H](F)C[C@H]2C(=O)Nc2cccc(Br)n2)n2ccc(-c3cnc(C)nc3)cc12 [Compound 643] was tested. Which pIC50 did it give?
A: Its pIC50 is > 6.00.

Q: Cc1cccc(NC(=O)[C@@H]2CCC(F)CCN2C(=O)Cn2cc(C(N)=O)c3cc(-c4cnc5c(c4)CCC5)ccc32)n1 (stereo partly drawn) [Compound 593, 5-(6,7-Dihydro-5H-cyclopenta[b]pyridin-3-yl)-1-(2-((2S)-5-fluoro-2-((6-methylpyridin-2-yl)carbamoyl)azepan-1-yl)-2-oxoethyl)-1H-indole-3-carboxamide] was tested. Which pIC50 did it give?
A: Its pIC50 is < 5.00.

Q: Cc1cccc(NC(=O)[C@@H]2CCC(F)CCN2C(=O)Cn2cc(C(N)=O)c3cc(-c4cccnc4)ccc32)n1 (stereo partly drawn) [Compound 588, 1-(2-((2S)-5-Fluoro-2-((6-methylpyridin-2-yl)carbamoyl)azepan-1-yl)-2-oxoethyl)-5-(pyridin-3-yl)-1H-indole-3-carboxamide] was tested. Which pIC50 did it give?
A: Its pIC50 is < 5.00.
